Values quoted from earlier work in patent publication US20230111756A1, “STABLE FORMULATIONS OF PLANTS EXTRACTS AND METHODS OF MAKING THE SAME” (Nulixir Inc., priority 2021, published 2023).

Details: reference solvents n-octanol and water; categorization at pH=7 unless stated otherwise
In the case of `COc1cc([C@H]2Oc3cc(O)c4c(=O)c(O)c(-c5ccc(O)cc5)oc4c3O[C@@H]2CO)ccc1O` [rhodiolin], the “log P” value is listed as about 2.
For `COc1ccc(CCc2cc(OC)cc(=O)o2)cc1` [7,8-dihydroyangonin], the “log P” value is given as about 2.9.
In the case of herinacine A, the “log P” value is given as about 2.5.
In the case of `COc1cc2c(c(OC)c1OC)-c1c(cc(OC)c(OC)c1OC)C[C@](C)(O)[C@@H](C)C2` [schisandrol A], the “log P” value is listed as about 3.4.
For tortuosomine, the “log P” value is listed as 3.
In the case of `COc1cc2c(c(OC)c1OC)-c1c(cc3c(c1OC)OCO3)CC(C)C(C)C2` (single isomer, unassigned; (-)) [(−)-schisandrin B], the “log P” value is listed as about 4.
In the case of `COc1c2c(cc3c1-c1c(cc4c(c1OC)OCO4)C[C@H](C)[C@H](C)C3)OCO2` [(−)-schisandrin C], the “log P” value is listed as about 3.5.
In the case of `CC1=C(CO)C(=O)O[C@@H]([C@@H](C)[C@H]2CC[C@H]3[C@@H]4C[C@H](Cl)[C@]5(O)[C@@H](O)C=CC(=O)[C@]5(C)[C@H]4CC[C@]23C)C1` [6a-chloro-5b-hydroxywithaferin A], the “log P” value is listed as about 3.2.
For (R)-kawain, the “log P” value is listed as about 2.7.
For bacopaside B, the “log P” value is listed as about 2.8.
In the case of `COc1cc(/C=C\c2ccc(OC)c(O)c2)oc(=O)c1` [11-hydroxyyangonin], the “log P” value is given as about 2.2.
For `CC(=O)OC1C=CC(=O)N(C(=O)CCc2ccccc2)C1` (stereo not shown) [pipermethystine], the “log P” value is listed as about 1.8.
In the case of `COc1ccc([C@@]23CCC(=O)C[C@@H]2N(C)CC3)cc1OC` [mesembrine], the “log P” value is listed as 1.5.
In the case of `COC1=CC(=O)O[C@@H](CCc2ccc3c(c2)OCO3)C1` [7,8-dihydromethysticin], the “log P” value is listed as about 2.2.
In the case of `COc1cc2c(c(OC)c1OC)-c1c(cc(OC)c(OC)c1OC)C[C@H](C)[C@H](C)C2` [(−)-schisandrin A], the “log P” value is listed as about 3.6.
For `COC1=CC(=O)OC(/C=C/c2ccc(OC)cc2)C1` (stereo not shown) [5,6-dihydroyangonin], the “log P” value is given as about 2.5.
In the case of `COc1cc(/C=C/c2ccccc2)oc(=O)c1` [5,6-dehydrokawain], the “log P” value is listed as about 2.9.
For `N#C[C@@]1(O[C@@H]2O[C@H](CO)[C@@H](O)[C@H](O)[C@H]2O)C=C[C@@H](O)C1` [tetraphyllin B], the “log P” value is listed as about −2.5.
In the case of `COc1cc2c(c(OC)c1OC)-c1c(cc(OC)c(OC)c1OC)C[C@](C)(O)[C@@H](C)C2` [(+)-schisandrin], the “log P” value is listed as about 5.
For `COc1nc2c(c(=O)n1C)n(C)c(=O)n2C` [methylliberine], the “log P” value is given as about −0.083.
In the case of schisandroside C, the “log P” value is given as about 1.6.
In the case of hericerin, the “log P” value is given as about 6.4.
